In US20240156764A1, “INHIBITION OF URACIL DNA GLYCOSYLASE IN THE OPEN CONFORMATION” (CASE WESTERN RESERVE UNIVERSITY, priority 2022, published 2024):

Target: human UDG (Homo sapiens, UniProt P13051)
Assay: Microscale thermophoresis (MST) binding
Parameters: Bacterially expressed and purified full-length human UDG; made in house
Procedure: The data for thermophoresis was recorded at 20° C. using the blue LED at 20% and IR-Laser at 40%. The isotherm derived from the raw data and fitted according to the law of mass action. […] Then 2 μL of 10× Sypro dye and 2 μL of ddH20 (Applied biosystems cat #4461141) were added. Monitoring of fluorescence took place for 2 hr (Bioraid CFX96, Hex filter, 25-97° C., 1.6° C./2 min). Negative (−) derivative RFU raw data and plots from the machine were obtained and analyzed. […] Melting temperature (Tm) value was taken directly from the midpoint on the −dRFU/dt vs. temperature graph. Each point on the graph represents an average of three data sets. Y error bars represent the standard deviation.
Bacterially expressed and purified full-length human UDG was fluorescently labeled with Atto488 NHS ester according to the manufacturer's protocol. […] The samples were loaded into silica premium capillaries (Polymicro Technologies) after incubation at room temperature for 15 min measurements were performed at 20° C., by using 20% LED power and 40% IR-laser power. Measurements were also carried out on 40 and 60% IR-Laser power for comparison. The raw data were exported to GraphPad Prism8 software, KD value was obtained by data fitting with a one-site specific binding model.

human UDG, sequence (P13051 whole entry): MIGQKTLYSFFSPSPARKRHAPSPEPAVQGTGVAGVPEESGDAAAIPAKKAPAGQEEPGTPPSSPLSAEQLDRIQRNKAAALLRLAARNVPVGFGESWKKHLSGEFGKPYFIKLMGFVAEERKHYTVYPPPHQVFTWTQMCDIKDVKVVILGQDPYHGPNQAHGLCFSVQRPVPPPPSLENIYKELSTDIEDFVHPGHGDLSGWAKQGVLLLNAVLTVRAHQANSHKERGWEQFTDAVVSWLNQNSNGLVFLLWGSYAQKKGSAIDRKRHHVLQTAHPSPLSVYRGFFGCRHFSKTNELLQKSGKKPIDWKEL

## N.N.N.O=C(O)C1=CC(=C(c2ccc(O)c(C(=O)O)c2)c2ccc(O)c(C(=O)O)c2)C=CC1=O [ATA NH4 salt]
MST, 100 nM labelled UDG, estimated, read-out: binding dissociation constant (KD)
  Kd: < 700 nM
More soluble ATA NH4 salt form
  direct binding to the purified human UDG protein: significant improvement in direct binding
